Seven compounds from patent EP4029374A1, “NITROGEN CONTAINING SURFACTANTS FOR AGRICULTURAL USE” (Nouryon Chemicals International B.V., priority 2021, dated 2022) can be followed below.

Series [1] can be described thus: Solubility of prior art betaine surfactants in concentrated glyphosate salt compositions. It is filed as physicochemical. The text has this:
WO2000038523 (Huntsman, US6500784, US6653257, EP1139761) discloses an amphoteric surfactant with the structure RCONH(CH2)n N^+R^12CH2COO- wherein R1 is alkyl or hydroxyl alkyl group with C1 to C4 and n = 2 - 4, and discloses a betaine with the structure R R^12N^+CH2COO- wherein R1 is alkyl or hydroxyl alkyl group with C1 to C4. The amphoterics disclosed there mainly functioned as a co-surfactant to solubilize a ether carboxylate in to concentrated glyphosate systems. In the context of the document, there was no mention of bioefficacy of betaines or other amphoteric surfactants by themselves. […] However, without proper testing of individual surfactant, it is not possible to determine whether the effect seen in the mixture of three surfactants comes from the claimed surfactant or the other two surfactants. Moreover, no actual bioefficacy data and especially no data are provided on the degree of "overall kill" provided in the absence of surfactants and in the presence of surfactants; without such data it is not possible to determine whether or not the claimed alkyl amido betaine was effective in enhancing herbicidal activity of glyphosate under the conditions of the test reported. This patent requires Na ion to be < 0.035% for the glyphosate formulation to be stable. Moreover, it used only IPA-glyphosate as examples. It is only recently known that many soluble surfactants in IPA-glyphosate are not soluble in concentrated K or NH4 glyphosate formulations. […] Since stearyl dimethylamidopropyl betaine itself had poor solubility in concentrated potassium glyphosate system, it is expected that the solubility of stearyl dimethylamidopropyl betaine plus ether carboxylate would be even worst in the concentrated potassium glyphosate system. Therefore, the claimed formulation in claim 1 in the document may not be stable, that is not useful, in a concentrated K glyphosate system.
US 20050170965 also indicates the aqueous glyphosate formulation is stable on storage. However, it is only recently known that many stable surfactants in IPA-glyphosate are not soluble in concentrated K or NH4 glyphosate formulations. Tests indicate that a composition of 360 g ae/l di-ammonium glyphosate could not dissolve 5.4% coco dimethyl betaine and a composition of 480 g ae/l potassium glyphosate could not dissolve 5.4% coco dimethylamidopropyl betaine. Since coco dimethyl betaine and coco dimethylamidopropyl betaine had poor solubility in concentrated potassium and di-ammonium glyphosate systems, it is expected that the claimed formulation in claim 16 of the document may not be stable in concentrated K or NH4 glyphosate systems. […]

The next series deals with wheat. The experiment in a line: Glyphosate formulation trial on wheat (Example 5). The class given is in vivo. The following applies: 168 g ae/ha; glyphosate to surfactant ratio 3 : 1; picture taken at 21DAT (FIG. 13). The text has this: Cocoamine-6EO betaine was compared in the same trial with tallowamine-15EO as the positive control and the surfactant-free sample as negative control in glyphosate formulations. Glyphosate to surfactant ratio was 3 : 1.
This can be seen from the picture at FIG. 13, taken at 21DAT.

A further series deals with morning glory; wheat. The experiment in a line: Green house trial of glyphosate formulations, % Control (Example 3). Conditions: 930, 465 and 233 g ae/ha; 28 DAT; compared with glyphosate formulation without surfactant; result in words (FIGS. 9-10). The class given is in vivo. The source says:
Glyphosate formulation containing oleylamphopolycarboxy glycinate (Na salt) was compared in a green house trial with glyphosate formulation containing tallowamine-10EO (as positive control) and glyphosate alone in terms of % Control. Three glyphosate rates were used, 930 g ae/ha, 465 gae/ha, and 233 g ae/ha.
The results are plotted in FIGS. 9-10.

Series [2] deals with morning glory (IPOHE, a broad leaf week) and winter wheat (TRZAW, a narrow leaf grass). The experiment in a line: Greenhouse spray of concentrated glyphosate samples, % control at 28 DAT (Example 2). The class given is in vivo. The following applies: glyphosate : surfactant 13:1, 489 and 978 g ae/H, result in words (FIGS. 7-8). Here is the method:
Table. 3 Studied glyphosate formulations using various surfactants
The concentrated glyphosate samples were diluted to two glyphosate rates and sprayed in a green house so that the final glyphosate rates of the spray solutions were 489 and 978 g ae/H. Three samples at two rates equals six treatments that were sprayed on each of two species, morning glory (IPOHE, a broad leaf week) and winter wheat (TRZAW, a narrow leaf grass). […]
Higher ratio means lower surfactant concentration. A ratio of 13:1 means the sample, at the same glyphosate concentration, has 4.3 times less surfactant than a sample with a ratio of 3:1.
Sample A (glyphosate with added tallowamine-15EO) served as a positive control. Sample B containing only glyphosate without added surfactant served as a negative control.
FIGS. 7-8 illustrates the % control results at 28 DAT.

As to `CCCCCCCCCCCCCCCCCC(=O)NCCC[N+](C)(C)CC(=O)[O-]` [stearyl dimethylamidopropyl betaine], in series [1] (in a composition of 51.3% potassium glyphosate), the surfactant solubility was under 1.8%. As to “Ethoxylated cocoamine (6EO) betaine [cocoamine-6EO betaine]”, the control to wheat result in the series on wheat is reported as “excellent control”. Regarding coco dimethyl betaine, in series [1] (in a composition of 360 g ae/l di-ammonium glyphosate), the surfactant solubility is reported as under 5.4%. coco dimethylamidopropyl betaine: the values for the surfactant solubility in series [1] (in a composition of 360 g ae/l potassium glyphosate) and in series [1] (in a composition of 480 g ae/l potassium glyphosate) were under 80 g/L and under 5.4%, respectively.

As to “oleylamphopolycarboxy glycinate (Na salt)”, the glyphosate efficacy result with morning glory; wheat is “enhanced glyphosate efficacy”. Take tallow diamine trimethyl di-betaine: the glyphosate bioefficacy entry in series [2] is recorded as “enhanced glyphosate bioefficacy even at very low rate”. On to tallowamine-15EO, for which the control to wheat entry in the series on wheat is reported as “excellent control”.
